Experimental findings from ChEMBL document CHEMBL4414609, “High-Affinity Alkynyl Bisubstrate Inhibitors of Nicotinamide N-Methyltransferase (NNMT)” (J Med Chem, 2019) are described below.

The target in series [1] is T1, Histone-lysine N-methyltransferase EHMT1 (Homo sapiens, UniProt Q9H9B1).
T1 sequence (Q9H9B1 whole entry): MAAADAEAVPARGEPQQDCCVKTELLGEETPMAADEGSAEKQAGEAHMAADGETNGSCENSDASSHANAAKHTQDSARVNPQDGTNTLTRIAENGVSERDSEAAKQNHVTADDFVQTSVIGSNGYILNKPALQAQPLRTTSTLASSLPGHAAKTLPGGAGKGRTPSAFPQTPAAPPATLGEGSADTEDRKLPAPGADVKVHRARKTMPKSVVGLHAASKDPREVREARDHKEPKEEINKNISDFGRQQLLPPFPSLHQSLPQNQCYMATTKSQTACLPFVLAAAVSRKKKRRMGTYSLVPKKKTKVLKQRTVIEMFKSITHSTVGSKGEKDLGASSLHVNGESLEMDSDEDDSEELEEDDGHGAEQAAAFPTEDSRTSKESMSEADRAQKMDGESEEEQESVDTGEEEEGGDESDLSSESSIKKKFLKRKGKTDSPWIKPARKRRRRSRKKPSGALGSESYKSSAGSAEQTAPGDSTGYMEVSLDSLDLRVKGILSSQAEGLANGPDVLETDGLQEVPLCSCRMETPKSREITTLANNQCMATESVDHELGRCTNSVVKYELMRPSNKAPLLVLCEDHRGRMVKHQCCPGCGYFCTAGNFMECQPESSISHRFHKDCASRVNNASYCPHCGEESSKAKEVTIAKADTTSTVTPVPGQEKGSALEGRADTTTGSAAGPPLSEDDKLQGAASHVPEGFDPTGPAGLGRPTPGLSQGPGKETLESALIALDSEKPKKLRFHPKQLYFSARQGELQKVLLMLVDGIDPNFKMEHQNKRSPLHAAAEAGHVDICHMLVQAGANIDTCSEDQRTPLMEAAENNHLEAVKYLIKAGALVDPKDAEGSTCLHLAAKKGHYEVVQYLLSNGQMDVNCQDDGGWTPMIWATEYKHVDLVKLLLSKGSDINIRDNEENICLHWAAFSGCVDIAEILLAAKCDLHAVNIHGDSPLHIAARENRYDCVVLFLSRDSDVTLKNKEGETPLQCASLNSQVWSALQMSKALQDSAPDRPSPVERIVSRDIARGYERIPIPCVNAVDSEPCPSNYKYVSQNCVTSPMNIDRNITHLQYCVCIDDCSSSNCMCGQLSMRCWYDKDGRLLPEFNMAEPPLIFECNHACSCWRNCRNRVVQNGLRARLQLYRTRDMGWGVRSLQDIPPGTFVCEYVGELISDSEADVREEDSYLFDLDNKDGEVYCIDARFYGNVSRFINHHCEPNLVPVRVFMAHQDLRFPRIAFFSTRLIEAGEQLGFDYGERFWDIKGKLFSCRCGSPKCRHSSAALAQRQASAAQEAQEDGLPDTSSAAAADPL
Kind of series: Inhibition of human EHMT1 expressed in Escherichia coli assessed as reduction in methylated histone H3 full length using histone H3 full length as substrate in presence of [3H] SAM incubated for 120 mins by scintillation counting.

Series [2] deals with HNMT (histamine N-methyltransferase) (Homo sapiens, UniProt P50135). The series can be described thus: Inhibition of human HNMT expressed in Escherichia coli at 10 uM assessed as reduction in SAH level using histamine as substrate in presence of SAM incubated for 15 mins by LC-MS/MS analysis relative to control. To be noted: recombinant human HNMT expressed in Escherichia coli, probe histamine.

SMILES strings stand for the structures.

Sequence of HNMT (histamine N-methyltransferase) (P50135 whole entry): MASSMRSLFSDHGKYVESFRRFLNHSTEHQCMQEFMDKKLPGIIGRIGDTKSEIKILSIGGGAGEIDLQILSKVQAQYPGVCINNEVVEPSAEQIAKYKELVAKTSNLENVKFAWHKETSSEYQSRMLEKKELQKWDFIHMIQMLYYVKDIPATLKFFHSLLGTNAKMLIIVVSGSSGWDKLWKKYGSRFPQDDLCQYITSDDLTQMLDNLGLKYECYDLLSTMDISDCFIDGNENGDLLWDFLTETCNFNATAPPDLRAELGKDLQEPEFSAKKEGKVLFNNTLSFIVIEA

As for `NC(=O)c1cccc(C#C[C@@H](CC[C@H](N)C(=O)O)C[C@H]2O[C@@H](n3cnc4c(N)ncnc43)[C@H](O)[C@@H]2O)c1`, in series [1], the IC50 is greater than 10 µM. Moreover, the inhibition at 0.25 h, 10 µM in series [2] was 2%.

Broadly, the IC50 is the concentration at which inhibition is half-maximal. In general, inhibition refers to the relative decrease from the control value, in per cent.
